Source: patent US8247170B2, “Detection of penicillin tolerance in Group B Streptococcus: single nucleotide polymorphisms in penicillin binding protein 4” (priority 2008, dated 2012)

System: GBS clinical isolates and laboratory strains
Experiment: Macrobroth penicillin tolerance assay
Format: cell-based, Group B Streptococcus
Conditions: then 24 h drug-free; for 10xMIC, regrowth O.D.600: Penicillin G 10×MIC90 48 h; for 30xMIC, regrowth O.D.600: Penicillin G 30×MIC90 48 h; for 100xMIC, regrowth O.D.600: Penicillin G 100×MIC90 48 h; for 300xMIC, regrowth O.D.600: Penicillin G 300×MIC90 48 h
Experimental: Using this modified penicillin tolerance assay, tolerant strains from the GBS clinical isolates can be more efficiently identified. In this macrobroth culture format, 25 ml THB broth GBS cultures (containing clinical isolates) were grown to an early exponential growth phase (˜0.2 OD600). Cell cultures (6 ml) were collected and divided into 4 culture tubes. […] Cell cultures were shaken at 150 rpm in order to maintain cells in suspension for proper growth. Subcultures (1/20 dilution) of cells were put into fresh THB containing […] Penase (i.e., 100 μl of Penase 10,000 U stock into 4 ml THB culture). Subcultures were allowed to grow for 24 hours at 37° C. Cell growth was monitored by OD (see Example 2).
(I) Bacterial Strains and Culture Conditions. GBS strains A909 (serotype IA), 515 (serotype IA), NEM316 (serotype III), COHI (serotype III), 2603V/R (serotype V) and O90R (non-typable) were used in this study. E. coli Top10 cells were used for the recombination experiments. GBS was cultured in Todd Hewitt broth (THB) or Tryptic Soy 5% sheep blood (TS) media and E. coli in Luria-broth (LB) medium or agar. Antibiotics were used at the following concentrations: for GBS—penicillin G (MIC90 0.06 μg ml^−1), ampicillin (MIC90 0.12 μg ml^−1), vancomycin (MIC90 2 μg ml^−1), cefazolin (MIC90 1 μg ml^−1) and chloramphenicol (5 μg ml^−1); for E. coli—ampicillin (50 μg ml^−1) and chloramphenicol (5 μg ml^−1). Both GBS and E. coli cultures were grown at 37° C. (II) Tolerance Using the MBC:MIC Ratio Method. Three GBS laboratory strains (i.e., A909, NEM316, and O90R) were cultured overnight for 18 h at 37° C. in THB. Subcultures in THB were subsequently grown to exponential phase (OD600˜0.3; i.e. 5×10^5 cfu/ml) at 37° C. Cell cultures were then exposed to different concentrations of antibiotics (Penicillin G, Ampicillin, Cefozolin or Vancomycin). […] Cell cultures were dispersed every 18 h before OD600 was measured to determine the lowest concentration of antibiotic with 90% growth inhibition (MIC90). Antibiotic treated cells (8 μl) from each well were re-suspended into PBS (100 μl) and plated (54 μl) on TS agar plates and allowed to grow for an additional 24 h at 37° C. Cell count was performed to determine the lowest concentration of antibiotic with 90% killing of original inoculums (MBC90). (III) Penicillin Killing and Regrowth Tolerance Assay by Microbroth Dilution. Three GBS laboratory strains (i.e., A909, NEM316, and O90R) were cultured overnight for 18 h at 37° C. in THB. Subcultures in THB were subsequently grown to exponential phase (OD600˜0.3) at 37° C. Cell cultures were then exposed to different concentrations of Penicillin G (Sigma, St. Louis, Mo.). […] Cell cultures were dispersed. A 1:20 dilution of cells was re-plated into new wells containing fresh THB with 500 U Penase (to degrade residual penicillin). Cell cultures were allowed to re-grow for an additional 24 h at 37° C. before the OD600 was measured. (IV) Measuring Cell Viability by Determining ATP Concentration. GBS strains were cultured for 18 h at 37° C. in THB. These cells were inoculated into fresh THB and subsequently allowed to grow to exponential phase (OD600 0.25-0.3) at 37° C. One ml of each culture was centrifuged at 5,000×g for 4 min. The cell pellet was re-suspended in ATP-free water. Cellular ATP was extracted using trichloroacetic acid (TCA) (5%) for 2 min and subsequently neutralized with Tris-EDTA-0.1M NaOAc, pH 7.75 to 10×TCA volume. The initial (in.) cellular ATP concentration ([ATP]) was measured using the ENLITEN (Promega) luciferase based reaction kit. THB cultures were then treated with 100×MIC90 Penicillin G for 22 h. The experimental (exp.) cellular ATP was extracted and the concentration was measured as stated above. Based on the calculations ([ATP] exp.)/([ATP] in./O.D. in.), differences in viability were equated with the change in [ATP]. (V) Measuring Penicillin Induced Lysis. Three GBS laboratory strains (A909, NEM316, and O90R) were cultured for 18 h at 37° C. in THB. […]

CC1(C)S[C@@H]2[C@H](NC(=O)Cc3ccccc3)C(=O)N2[C@H]1C(=O)O [Penicillin G]
10xMIC, regrowth O.D.600 (GBS strain 308 (V)): −− (“−−” indicates an O.D.600 of 0.001 to 0.099) | 30xMIC, regrowth O.D.600 (GBS strain 308 (V)): −− (“−−” indicates an O.D.600 of 0.001 to 0.099) | 100xMIC, regrowth O.D.600 (GBS strain 308 (V)): −− (“−−” indicates an O.D.600 of 0.001 to 0.099) | 300xMIC, regrowth O.D.600 (GBS strain 308 (V)): −− (“−−” indicates an O.D.600 of 0.001 to 0.099) | 10xMIC, regrowth O.D.600 (GBS strain 311 (Ib)): −− (“−−” indicates an O.D.600 of 0.001 to 0.099) | 30xMIC, regrowth O.D.600 (GBS strain 311 (Ib)): −− (“−−” indicates an O.D.600 of 0.001 to 0.099) | 100xMIC, regrowth O.D.600 (GBS strain 311 (Ib)): + (“+” indicates an O.D.600 of 0.100 to 0.250) | 300xMIC, regrowth O.D.600 (GBS strain 311 (Ib)): + (“+” indicates an O.D.600 of 0.100 to 0.250) | 10xMIC, regrowth O.D.600 (GBS strain 316 (V)): −− (“−−” indicates an O.D.600 of 0.001 to 0.099) | 30xMIC, regrowth O.D.600 (GBS strain 316 (V)): −− (“−−” indicates an O.D.600 of 0.001 to 0.099) | 100xMIC, regrowth O.D.600 (GBS strain 316 (V)): −− (“−−” indicates an O.D.600 of 0.001 to 0.099) | 300xMIC, regrowth O.D.600 (GBS strain 316 (V)): −− (“−−” indicates an O.D.600 of 0.001 to 0.099) | 10xMIC, regrowth O.D.600 (GBS strain 320 (III)): +++ (“+++” indicates an O.D.600 of 0.751 to 1.500) | 30xMIC, regrowth O.D.600 (GBS strain 320 (III)): +++ (“+++” indicates an O.D.600 of 0.751 to 1.500) | 100xMIC, regrowth O.D.600 (GBS strain 320 (III)): +++ (“+++” indicates an O.D.600 of 0.751 to 1.500) | 300xMIC, regrowth O.D.600 (GBS strain 320 (III)): +++ (“+++” indicates an O.D.600 of 0.751 to 1.500) | 10xMIC, regrowth O.D.600 (GBS strain 357 (NT)): −− (“−−” indicates an O.D.600 of 0.001 to 0.099) | 30xMIC, regrowth O.D.600 (GBS strain 357 (NT)): −− (“−−” indicates an O.D.600 of 0.001 to 0.099) | 100xMIC, regrowth O.D.600 (GBS strain 357 (NT)): +++ (“+++” indicates an O.D.600 of 0.751 to 1.500) | 300xMIC, regrowth O.D.600 (GBS strain 357 (NT)): ++ (“++” indicates an O.D.600 of 0.251 to 0.750) | 10xMIC, regrowth O.D.600 (GBS strain 359 (V)): −− (“−−” indicates an O.D.600 of 0.001 to 0.099) | 30xMIC, regrowth O.D.600 (GBS strain 359 (V)): −− (“−−” indicates an O.D.600 of 0.001 to 0.099) | 100xMIC, regrowth O.D.600 (GBS strain 359 (V)): −− (“−−” indicates an O.D.600 of 0.001 to 0.099) | 300xMIC, regrowth O.D.600 (GBS strain 359 (V)): −− (“−−” indicates an O.D.600 of 0.001 to 0.099) | 10xMIC, regrowth O.D.600 (GBS strain 367 (V)): −− (“−−” indicates an O.D.600 of 0.001 to 0.099) | 30xMIC, regrowth O.D.600 (GBS strain 367 (V)): −− (“−−” indicates an O.D.600 of 0.001 to 0.099) | 100xMIC, regrowth O.D.600 (GBS strain 367 (V)): −− (“−−” indicates an O.D.600 of 0.001 to 0.099) | 300xMIC, regrowth O.D.600 (GBS strain 367 (V)): −− (“−−” indicates an O.D.600 of 0.001 to 0.099) | 10xMIC, regrowth O.D.600 (GBS strain 377 (V)): −− (“−−” indicates an O.D.600 of 0.001 to 0.099) | 30xMIC, regrowth O.D.600 (GBS strain 377 (V)): −− (“−−” indicates an O.D.600 of 0.001 to 0.099) | 100xMIC, regrowth O.D.600 (GBS strain 377 (V)): −− (“−−” indicates an O.D.600 of 0.001 to 0.099) | 300xMIC, regrowth O.D.600 (GBS strain 377 (V)): −− (“−−” indicates an O.D.600 of 0.001 to 0.099) | 10xMIC, regrowth O.D.600 (GBS strain 378 (NT)): −− (“−−” indicates an O.D.600 of 0.001 to 0.099) | 30xMIC, regrowth O.D.600 (GBS strain 378 (NT)): −− (“−−” indicates an O.D.600 of 0.001 to 0.099) | 100xMIC, regrowth O.D.600 (GBS strain 378 (NT)): −− (“−−” indicates an O.D.600 of 0.001 to 0.099) | 300xMIC, regrowth O.D.600 (GBS strain 378 (NT)): −− (“−−” indicates an O.D.600 of 0.001 to 0.099) | 10xMIC, regrowth O.D.600 (GBS strain 379 (V)): −− (“−−” indicates an O.D.600 of 0.001 to 0.099) | 30xMIC, regrowth O.D.600 (GBS strain 379 (V)): −− (“−−” indicates an O.D.600 of 0.001 to 0.099) | 100xMIC, regrowth O.D.600 (GBS strain 379 (V)): −− (“−−” indicates an O.D.600 of 0.001 to 0.099) | 300xMIC, regrowth O.D.600 (GBS strain 379 (V)): −− (“−−” indicates an O.D.600 of 0.001 to 0.099) | 10xMIC, regrowth O.D.600 (GBS strain 380 (NT)): −− (“−−” indicates an O.D.600 of 0.001 to 0.099) | 30xMIC, regrowth O.D.600 (GBS strain 380 (NT)): −− (“−−” indicates an O.D.600 of 0.001 to 0.099) | 100xMIC, regrowth O.D.600 (GBS strain 380 (NT)): +++ (“+++” indicates an O.D.600 of 0.751 to 1.500) | 300xMIC, regrowth O.D.600 (GBS strain 380 (NT)): + (“+” indicates an O.D.600 of 0.100 to 0.250) | 10xMIC, regrowth O.D.600 (GBS strain 388 (NT)): −− (“−−” indicates an O.D.600 of 0.001 to 0.099) | 30xMIC, regrowth O.D.600 (GBS strain 388 (NT)): −− (“−−” indicates an O.D.600 of 0.001 to 0.099) | 100xMIC, regrowth O.D.600 (GBS strain 388 (NT)): −− (“−−” indicates an O.D.600 of 0.001 to 0.099) | 300xMIC, regrowth O.D.600 (GBS strain 388 (NT)): −− (“−−” indicates an O.D.600 of 0.001 to 0.099) | 10xMIC, regrowth O.D.600 (GBS strain 389 (Ia)): ++ (“++” indicates an O.D.600 of 0.251 to 0.750) | 30xMIC, regrowth O.D.600 (GBS strain 389 (Ia)): +++ (“+++” indicates an O.D.600 of 0.751 to 1.500) | 100xMIC, regrowth O.D.600 (GBS strain 389 (Ia)): +++ (“+++” indicates an O.D.600 of 0.751 to 1.500) | 300xMIC, regrowth O.D.600 (GBS strain 389 (Ia)): +++ (“+++” indicates an O.D.600 of 0.751 to 1.500) | 10xMIC, regrowth O.D.600 (GBS strain 391 (NT)): ++ (“++” indicates an O.D.600 of 0.251 to 0.750) | 30xMIC, regrowth O.D.600 (GBS strain 391 (NT)): ++ (“++” indicates an O.D.600 of 0.251 to 0.750) | 100xMIC, regrowth O.D.600 (GBS strain 391 (NT)): ++ (“++” indicates an O.D.600 of 0.251 to 0.750) | 300xMIC, regrowth O.D.600 (GBS strain 391 (NT)): ++ (“++” indicates an O.D.600 of 0.251 to 0.750) | 10xMIC, regrowth O.D.600 (GBS strain 399 (V)): −− (“−−” indicates an O.D.600 of 0.001 to 0.099) | 30xMIC, regrowth O.D.600 (GBS strain 399 (V)): + (“+” indicates an O.D.600 of 0.100 to 0.250) | 100xMIC, regrowth O.D.600 (GBS strain 399 (V)): + (“+” indicates an O.D.600 of 0.100 to 0.250) | 300xMIC, regrowth O.D.600 (GBS strain 399 (V)): + (“+” indicates an O.D.600 of 0.100 to 0.250)
